# Laboratory results reported in US20200171117A1, “DRY EYE BOTANICALS” (ACCESS BUSINESS GROUP INTERNATIONAL LLC, priority 2018, published 2020).
# Several values for one entry are separate records, joined by “and”; a condition that tells them apart may be missing. Equal values may be shown once.
# Key:
# [1] = tested on: HMGEC (immortalized human meibomian gland epithelial cells); assay: PPARγ-mediated lipid synthesis activity in HMGECs (LipidTox Green neutral lipid staining); format: cell-based; details: for Effect on lipid synthesis (in words): compared with Rosi
# Protocol: Extracts of loquat and ginger identified in Example 1 are tested for their effect on lipid synthesis and PPARγ receptor activation using HMGECs. In particular, HMGECs are plated on collagen coated glass cover slips and treated with samples of each extract (varying concentrations in Media 1 with 0.1% DMSO), positive control (Rosi, 30 μM in Media 1 with 0.1% DMSO), and negative control (Media 1 with 0.1% DMSO) and incubated for 6 days. The treated cells are then fixed, stained with LipidTox Green, and the area of neutral lipid staining quantified.
# [2] = tested on: PPARγ response genes ADFP, ELOVL4, and ANGPTL4; assay: Real-time PCR of PPARγ response gene expression; format: cell-based; details: FIGS. 1-4
# Protocol: Loquat Extract #1 (“538”), and known phytochemical components thereof (oleanolic acid (“OA”); ursolic acid (“UA”)), are analyzed by real-time PCR (BioRad CFX96 Thermal Cycler, Hercules, Calif. (or equivalent)), to assess sample-induced expression of the PPARγ response genes ADFP, ELOVL4, and ANGPTL4 via mRNA quantification. In particular, samples are prepared and analyzed according to the procedure set forth in Jester et. al., “PPARγ regulates mouse meibocyte differentiation and lipid synthesis,” The Ocular Surface 14.4 (2016): 484-494, the disclosure of which is herein incorporated by […]. The results of the quantification are shown in FIGS. 1-4, where the vertical (Y) axis of each plot corresponds to the fold change in response observed.
# To assess the effects on gene expression mediation via PPARγ signaling, a PPARγ-specific antagonist (T0070907; (“T”)) is added to inhibit PPARγ signaling. […] As such, Loquat leaf is shown to have specific and synergistic PPARγ agonist activity that may be unrelated to individual phytochemical components thereof.
Structure (SMILES),Effect on lipid synthesis (in words) [1],"PPARγ response gene expression (mRNA of ADFP, ELOVL4, ANGPTL4; PPARγ), fold change, in words [2]","% Lipid Mean (percent positive control, Rosi set at 100%) ([1]; 30 μM, 6 days)","Nuclei Mean ([1]; 30 μM, 6 days)"
CC1(C)CC[C@]2(C(=O)O)CC[C@]3(C)C(=CC[C@@H]4[C@@]5(C)CC[C@H](O)C(C)(C)[C@@H]5CC[C@]43C)[C@@H]2C1 [oleanolic acid],no individual effects,no individual effects,–,–
"CN(CCOc1ccc(CC2SC(=O)NC2=O)cc1)c1ccccn1 (stereo not drawn) [Rosi, Rosiglitazone]",–,–,97.5% and 100%,1622.13 and 1070
C[C@H]1[C@H](C)CC[C@]2(C(=O)O)CC[C@]3(C)C(=CC[C@@H]4[C@@]5(C)CC[C@H](O)C(C)(C)[C@@H]5CC[C@]43C)[C@H]12 [ursolic acid],no individual effects,no individual effects,–,–
